Experiments:
Type in all cases: in vivo
[1] = system: soybean cyst nematodes (Heterodera glycines); experiment: Field trial: yield improvement against soybean cyst nematode in soybean after seed treatment; conditions: soybean (Dyna-Gro 39RY43) seed treatment; per 100 kg of seed: MBI600 1*10^11 CFU, cis-jasmone 0.2 g ai; harvest yield (bushels/acre) converted into % of untreated control; 4 replicates
Text: (§1) To establish, whether a synergistic effect is present, the expected efficacy has to be calculated and compared to the observed efficacy of the mixture according to the invention.
(§2) Synergism can be described as an interaction where the combined effect of two or more compounds is greater than the sum of the individual effects of each of the compounds. The presence of a synergistic effect in terms of percent control, between two mixing partners (X and Y) can be calculated using the Colby equation (Colby, S. R., 1967, Calculating Synergistic and Antagonistic Responses in Herbicide Combinations, Weeds, 15, 20-22):
(§3) X=Observed efficacy (in % of Untreated Control) of compound 1
(§4) Y=Observed efficacy (in % of Untreated Control) of compound 2
(§5) E=Calculated (i.e. expected) efficacy (in % of Untreated Control)
(§6) When the observed efficacy (%) is greater than the calculated efficacy (E) according to Colby (%), then the combined effect is synergistic.
For evaluating control of soybean cyst nematodes (Heterodera glycines) in soybean, soybean seeds (variety Dyna-Gro 39RY43) were treated with cis-jasmone, MB1600 (Bacillus amyloliquefaciens ssp. plantarum MB1600), or a mixture thereof.
(§7) Seeds were placed in a plastic cup and the compounds, or the mixture thereof, was dosed on the seeds with an application rate of 0.2 g of cis-jasmone per 100 kg of seeds, and 1*10^11 CFU of MBI600 per 100 kg of seeds. […]

[2] = system: root knot nematodes (Meloidogyne incognita/acrita); experiment: Field trial: yield improvement against root knot nematode in corn after seed treatment; conditions: corn (NG6247MQKZ, NF5334MQKZ, NG4549MQKZ) seed treatment; per 100 kg of seeds: MBI600 1*10^11 CFU, cis-jasmone 0.2 g ai; harvest yield (bushels/acre) converted into % of untreated control; 4-6 replicates
Text: as §1, §2, §3, §4, §5, §6
For evaluating control of root knot nematodes (Meloidogyne incognita/acrita) in corn, corn seeds (varieties NG6247MQKZ, NF5334MQKZ and NG4549MQKZ, respectively) were treated with cis-jasmone, MBI600 (Bacillus amyloliquefaciens ssp. plantarum MBI600), or a mixture thereof. […]

[3] = system: root knot nematodes (Meloidogyne incognita/acrita); experiment: Field trial: yield improvement against root knot nematode in cotton after seed treatment; conditions: cotton (PhytoGen PHY 499 WRF) seed treatment; per 100 kg of seed: MBI600 1*10^11 CFU, cis-jasmone 0.2 g ai; harvest yield (pounds/acre) converted into % of untreated control; 4 replicates
Text: as §1, §2, §3, §4, §5, §6
For evaluating control of root knot nematodes (Meloidogyne incognita/acrita) in cotton, cotton seeds (variety PhytoGen PHY 499 WRF) were treated with cis-jasmone, MBI600 (Bacillus amyloliquefaciens ssp. plantarum MBI600), or a mixture thereof.
as §7

## CC/C=C\CC1=C(C)CCC1=O [Cis-jasmone]
[1]
  Observed efficacy (%): 9%
[2]
  Observed efficacy (%): 9.2%
[3]
  Observed efficacy (%): 47.2%

Source: patent US11076600B2, “Mixtures of cis-jasmone and bacillus amyloliquefaciens” (BASF SE, priority 2015, dated 2021)
